The results in this text go back to patent US8377974B2 (Millennium Pharmaceuticals, Inc., priority 2004, dated 2013).

Some results are limits rather than exact numbers.

The target in this assay is T1, human plasma protein factor Xa (Homo sapiens, UniProt P00742).
T1 construct: measure proteolytic activity of the enzyme (factor Xa); purchased Haematologic Technologies (Essex Junction, Vt.); host or cells: human plasma
T1 sequence (P00742 235-488 limits assumed): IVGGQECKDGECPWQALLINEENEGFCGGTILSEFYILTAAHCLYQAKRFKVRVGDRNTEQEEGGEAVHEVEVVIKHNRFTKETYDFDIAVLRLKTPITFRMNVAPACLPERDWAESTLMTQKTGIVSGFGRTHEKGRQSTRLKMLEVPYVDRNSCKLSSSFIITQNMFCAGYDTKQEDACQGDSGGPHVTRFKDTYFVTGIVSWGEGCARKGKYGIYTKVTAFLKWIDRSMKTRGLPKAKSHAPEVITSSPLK
T1 sequence (P00742 41-179 partner limits assumed): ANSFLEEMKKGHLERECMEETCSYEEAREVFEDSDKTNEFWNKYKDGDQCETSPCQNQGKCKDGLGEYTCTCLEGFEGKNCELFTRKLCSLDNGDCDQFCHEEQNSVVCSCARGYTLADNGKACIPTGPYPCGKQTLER
Put plainly: Factor Xa IC50 determination: cleavage of paranitroanilide substrate S-2765 in 96-well plates. The class given is biochemical. The note with it: fXa 1 nM, S-2765 100 μM, Tris buffered saline pH 7.4, room temperature. The essentials: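 Initial rates of S-2765 (100 μM final) cleavage, read at 405 nm for 2 min, fitted with a four-parameter equation to give IC50. Enzyme: 1 nM human plasma fXa, 5 min room-temperature preincubation with inhibitor (0.01 nM–10 μM) in 20 mM Tris, 150 mM NaCl, 5 mM CaCl2, 0.1% BSA, 5% DMSO, pH 7.4; duplicates.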
In turn, `N=C(c1ccc(-c2cc(CNC(=O)c3ccc(Cl)s3)on2)c(Oc2ccccc2)c1)N1CCCC1` [Example 132, 5-Chloro-thiophene-2-carboxylic acid {3-[4-(imino-pyrrolidin-1-yl-methyl)-2-phenoxy-phenyl]-isoxazol-5-ylmethyl}-amide] had a 50% inhibitory concentration (IC50) of no more than 0.1 µM. For `COc1ccc(Oc2cc(C(=N)N(C)C)ccc2-c2cc(CNC(=O)c3ccc(Cl)s3)on2)cc1` [Example 133, 5-Chloro-thiophene-2-carboxylic acid {3-[4-(N,N-dimethyl-carbamimidoyl)-2-(4-methoxy-phenoxy)-phenyl]-isoxazol-5-ylmethyl}-amide], the IC50 is no more than 0.1 µM. Take `COc1ccc(Oc2cc(C3=NCCN3C)ccc2-c2cc(CNC(=O)c3ccc(Cl)s3)on2)cc1` [Example 134, 5-Chloro-thiophene-2-carboxylic acid {3-[2-(4-methoxy-phenoxy)-4-(1-methyl-4,5-dihydro-1H-imidazol-2-yl)-phenyl]-isoxazol-5-ylmethyl}-amide]: the half-inhibitory concentration (IC50) was no more than 0.1 µM.

`COc1ccc(Oc2cc(C(=N)N3CCCC3)ccc2-c2cc(CNC(=O)c3ccc(Cl)s3)on2)cc1` [Example 135, 5-Chloro-thiophene-2-carboxylic acid {3-[4-(imino-pyrrolidin-1-yl-methyl)-2-(4-methoxy-phenoxy)-phenyl]-isoxazol-5-ylmethyl}-amide] yielded a half-maximal inhibitory concentration (IC50) of no more than 0.1 µM.

Molecule `CSc1cc(C(=N)N(C)C)ccc1C1=NOC(CNC(=O)c2ccc(Cl)s2)C1` (stereo not drawn) [Example 136, 5-Chloro-thiophene-2-carboxylic acid {3-[4-(N,N-dimethyl-carbamimidoyl)-2-methylsulfanyl-phenyl]-4,5-dihydro-isoxazol-5-ylmethyl}-amide] displayed an IC50 of no more than 0.1 µM.

`CSc1cc(C2=NCCN2C)ccc1C1=NOC(CNC(=O)c2ccc(Cl)s2)C1` (stereo not drawn) [Example 137, 5-Chloro-thiophene-2-carboxylic acid {3-[4-(1-methyl-4,5-dihydro-1H-imidazol-2-yl)-2-methylsulfanyl-phenyl]-4,5-dihydro-isoxazol-5-ylmethyl}-amide] registered a half-maximal inhibitory concentration (IC50) of no more than 0.1 µM. `CSc1cc(C(=N)N2CCCC2)ccc1C1=NOC(CNC(=O)c2ccc(Cl)s2)C1` (stereo not drawn) [Example 138, 5-Chloro-thiophene-2-carboxylic acid {3-[4-(imino-pyrrolidin-1-yl-methyl)-2-methylsulfanyl-phenyl]-4,5-dihydro-isoxazol-5-ylmethyl}-amide] came in with a concentration for half-maximal inhibition (IC50) of no more than 0.1 µM. `CSc1cc(C(=N)N2CCCCC2)ccc1C1=NOC(CNC(=O)c2ccc(Cl)s2)C1` (stereo not drawn) [Example 139, 5-Chloro-thiophene-2-carboxylic acid {3-[4-(imino-piperidin-1-yl-methyl)-2-methylsulfanyl-phenyl]-4,5-dihydro-isoxazol-5-ylmethyl}-amide] registered a concentration for half-maximal inhibition (IC50) of no more than 0.1 µM. In the case of `CSc1cc(C(=N)N(C)C)ccc1-c1cc(CNC(=O)c2ccc(Cl)s2)on1` [Example 140, 5-Chloro-thiophene-2-carboxylic acid {3-[4-(N,N-dimethyl-carbamimidoyl)-2-methylsulfanyl-phenyl]-isoxazol-5-ylmethyl}-amide], the IC50 was no more than 0.1 µM. The molecule `CSc1cc(C2=NCCN2C)ccc1-c1cc(CNC(=O)c2ccc(Cl)s2)on1` [Example 141, 5-Chloro-thiophene-2-carboxylic acid {3-[4-(1-methyl-4,5-dihydro-1H-imidazol-2-yl)-2-methylsulfanyl-phenyl]-isoxazol-5-ylmethyl}-amide] returned an IC50 of no more than 0.1 µM. In turn, `CSc1cc(C(=N)N2CCCC2)ccc1-c1cc(CNC(=O)c2ccc(Cl)s2)on1` [Example 142, 5-Chloro-thiophene-2-carboxylic acid {3-[4-(imino-pyrrolidin-1-yl-methyl)-2-methylsulfanyl-phenyl]-isoxazol-5-ylmethyl}-amide] showed an IC50 of no more than 0.1 µM. The molecule `CSc1cc(C(=N)N2CCCCC2)ccc1-c1cc(CNC(=O)c2ccc(Cl)s2)on1` [Example 143, 5-Chloro-thiophene-2-carboxylic acid {3-[4-(imino-piperidin-1-yl-methyl)-2-methylsulfanyl-phenyl]-isoxazol-5-ylmethyl}-amide] yielded a half-inhibitory concentration (IC50) of no less than 0.5 µM.

Consider `O=C(NCC1CC(c2ccccc2)=NO1)c1ccc(Cl)s1` (stereo not drawn) [Example 144, 5-Chloro-thiophene-2-carboxylic acid (3-phenyl-4,5-dihydro-isoxazol-5-ylmethyl)-amide], for which the IC50 was no less than 0.5 µM. The molecule `CC1(CNC(=O)c2ccc(Cl)s2)CC(c2ccccc2)=NO1` (stereo not drawn) [Example 145, 5-Chloro-thiophene-2-carboxylic acid (5-methyl-3-phenyl-4,5-dihydro-isoxazol-5-ylmethyl)-amide] came in with a concentration for half-maximal inhibition (IC50) of no less than 0.5 µM. `O=C(NCc1cc(-c2ccccc2)no1)c1ccc(Cl)s1` [Example 146, 5-Chloro-thiophene-2-carboxylic acid (3-phenyl-isoxazol-5-ylmethyl)-amide] returned a 50% inhibitory concentration (IC50) of no less than 0.5 µM. Molecule `Cc1ccc(C2=NOC(CNC(=O)c3ccc(Cl)s3)C2)cc1` (stereo not drawn) [Example 147, 5-Chloro-thiophene-2-carboxylic acid (3-p-tolyl-4,5-dihydro-isoxazol-5-ylmethyl)-amide] yielded a half-inhibitory concentration (IC50) of no less than 0.5 µM. `Cc1ccc(C2=NOC(C)(CNC(=O)c3ccc(Cl)s3)C2)cc1` (stereo not drawn) [Example 148, 5-Chloro-thiophene-2-carboxylic acid (5-methyl-3-p-tolyl-4,5-dihydro-isoxazol-5-ylmethyl)-amide] had an IC50 of no less than 0.5 µM. In turn, `Cc1ccc(-c2cc(CNC(=O)c3ccc(Cl)s3)on2)cc1` [Example 149, 5-Chloro-thiophene-2-carboxylic acid (3-p-tolyl-isoxazol-5-ylmethyl)-amide] had an IC50 of no less than 0.5 µM. Molecule `COc1ccc(C2=NOC(CNC(=O)c3ccc(Cl)s3)C2)cc1` (stereo not drawn) [Example 150, 5-Chloro-thiophene-2-carboxylic acid [3-(4-methoxy-phenyl)-4,5-dihydro-isoxazol-5-ylmethyl]-amide] had an IC50 of no less than 0.5 µM. As to `COc1ccc(C2=NOC(C)(CNC(=O)c3ccc(Cl)s3)C2)cc1` (stereo not drawn) [Example 151, 5-Chloro-thiophene-2-carboxylic acid [3-(4-methoxy-phenyl)-5-methyl-4,5-dihydro-isoxazol-5-ylmethyl]-amide], the IC50 was no less than 0.5 µM. Under `COc1ccc(-c2cc(CNC(=O)c3ccc(Cl)s3)on2)cc1` [Example 152, 5-Chloro-thiophene-2-carboxylic acid [3-(4-methoxy-phenyl)-isoxazol-5-ylmethyl]-amide] stands no less than 0.5 µM; under `O=C(NCC1CC(c2ccc(Cl)cc2)=NO1)c1ccc(Cl)s1` (stereo not drawn) [Example 153, 5-Chloro-thiophene-2-carboxylic acid [3-(4-chloro-phenyl)-4,5-dihydro-isoxazol-5-ylmethyl]-amide], no less than 0.5 µM; under `CC1(CNC(=O)c2ccc(Cl)s2)CC(c2ccc(Cl)cc2)=NO1` (stereo not drawn) [Example 154, 5-Chloro-thiophene-2-carboxylic acid [3-(4-chloro-phenyl)-5-methyl-4,5-dihydro-isoxazol-5-ylmethyl]-amide], no less than 0.5 µM.

The molecule `O=C(NCc1cc(-c2ccc(Cl)cc2)no1)c1ccc(Cl)s1` [Example 155, 5-Chloro-thiophene-2-carboxylic acid [3-(4-chloro-phenyl)-isoxazol-5-ylmethyl]-amide] registered an IC50 of no less than 0.5 µM.
